From patent publication US20140255476A1, “COMPOSITIONS, DEVICES, AND METHODS FOR TREATING INFECTIONS” (University of Washington through its Center for …, priority 2011, published 2014)

Experiments:
[1] = decomposition of calcium hypochlorite under ambient light; type: physicochemical; settings: 200 mg/ml, 37° C., without stabilization in alginate-calcium hydrogel
Procedure: In one embodiment, the interactions of calcium hypochlorite and alginate control the release of chlorine over time, which allows prolonged and continuous exposure. Without stabilization of calcium hypochlorite in alginate-calcium hydrogel, calcium hypochlorite at a concentration of 200 mg/ml is decomposed under ambient light within 30 min at 37° C. In a composition containing 1% alginate tested at room temperature (without exposing to light), about 40-50% of chlorine was released over 2 hr test period for all calcium hypochlorite concentrations tested (FIG. 2). […] It is understood that the physical structure of the gel can take the form of particles, sheets, or appropriate structure to optimize the surface suitable for release of the active hypohalite form.

onychomycosis = settings: topical formulations; do not penetrate the nail; cited from earlier work
[2] = tested on: XL-1 antibiotic resistant bacteria; settings: 30 and 60 mg/ml, 16 hr and 40 hr
Procedure: FIGS. 11A-11D are images of agar plates seeded with XL-1 antibiotic resistant bacteria comparing the effectiveness of sodium hypochlorite (11A and 11C) and calcium hypochlorite (11B and 11D) at 16 hr (11A and 11B) and 40 hr (11C and 11D). Sodium hypochlorite (11A and 11C): 0, water; 1 30 mg/ml with alginate; 2, 60 mg/ml with alginate; 3, 60 mg/ml without alginate; 4, 30 mg/ml without alginate. Calcium hypochlorite (11B and 11D): 0, water; 1 25 mg/ml with alginate; 2, 50 mg/ml with alginate; 3, 50 mg/ml without alginate; 4, 25 mg/ml without alginate.

Compound | effectiveness for onychomycosis (onychomycosis) | also measured
[Ca+2].[O-]Cl.[O-]Cl [calcium hypochlorite] | – | time to decomposition [1]: ≤ 30 min
Clc1ccccc1C(c1ccccc1)(c1ccccc1)n1ccnc1 [clotrimazole] | totally ineffective | –
CN(C/C=C/C#CC(C)(C)C)Cc1cccc2ccccc12 [terbinafine] | totally ineffective | –
sodium chlorite | – | effectiveness with vs without alginate [2]: not affected by the presence of alginate
